Measured values: US12304890B2, “R-type pyridyloxycarboxylic acid, salt and ester derivative thereof, and preparation method therefor, and herbicidal composition and application thereof” (Qingdao Kingagroot Chemical Compound Co., Ltd., priority 2018, dated 2025)

Tests used:
Format in all cases: in vivo
Echinochloa crusgalli = experiment: Post-emergence test experiment, Echinochloa crusgalli; settings: 1000 g a.i./ha, 3 weeks in greenhouse, fresh weight inhibition
How it was run: (§1)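 Seeds sown under 0.5-2 cm soil; sprayed post-emergence at 2-3 leaves with acetone/tween-80 solution plus 1.5 L/ha methyl oleate EC; greenhouse 3 wk; % fresh weight inhibition.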

[1] = test system: Monocotyledonous and dicotyledonous weed seeds and main crop seeds; experiment: Post-emergence test experiment, other weeds and crops (Table 4, 1000 g a.i./ha); settings: 3 weeks in greenhouse, fresh weight inhibition
How it was run: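 Growth inhibition is scored on fresh weight. Spray solutions were made in acetone with tween-80, diluted in water, plus 1.5 L/ha methyl oleate emulsible concentrate. Plants from greenhouse-grown weed and crop seeds were treated post-emergence at 2-3 leaves, 2 weeks after sowing.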

Digitaria sanguinalis = experiment: Post-emergence test experiment, Digitaria sanguinalis; settings: 1000 g a.i./ha, 3 weeks in greenhouse, fresh weight inhibition
How it was run: as §1

SMILES	Activity level (growth inhibition rate), Echinochloa crusgalli (Echinochloa crusgalli)	Activity level (growth inhibition rate), Abutilon theophrasti Medic. [1]	Activity level (growth inhibition rate), Galium aparine [1]	Activity level (growth inhibition rate), Monochoria Vaginalis [1]	Activity level (growth inhibition rate), Digitaria sanguinalis (Digitaria sanguinalis)
Cc1cccc(CSC(=O)C(C)Oc2nc(F)c(Cl)c(N)c2Cl)c1 (centres unmarked) [Compound 2-305]	5 (Level 5: the growth inhibition rate is greater than 85%)	5 (Level 5: the growth inhibition rate is greater than 85%)	5 (Level 5: the growth inhibition rate is greater than 85%)	5 (Level 5: the growth inhibition rate is greater than 85%)	5 (Level 5: the growth inhibition rate is greater than 85%)
Cc1ccc(COC(=O)C(C)Oc2nc(F)c(Cl)c(N)c2Cl)cc1 (centres unmarked) [Compound 2-306]	5 (Level 5: the growth inhibition rate is greater than 85%)	5 (Level 5: the growth inhibition rate is greater than 85%)	5 (Level 5: the growth inhibition rate is greater than 85%)	5 (Level 5: the growth inhibition rate is greater than 85%)	5 (Level 5: the growth inhibition rate is greater than 85%)
Cc1ccc(CSC(=O)C(C)Oc2nc(F)c(Cl)c(N)c2Cl)cc1 (centres unmarked) [Compound 2-307]	5 (Level 5: the growth inhibition rate is greater than 85%)	5 (Level 5: the growth inhibition rate is greater than 85%)	5 (Level 5: the growth inhibition rate is greater than 85%)	5 (Level 5: the growth inhibition rate is greater than 85%)	5 (Level 5: the growth inhibition rate is greater than 85%)
CC(Oc1nc(F)c(Cl)c(N)c1Cl)C(=O)OCc1ccccc1F (centres unmarked) [Compound 2-308]	5 (Level 5: the growth inhibition rate is greater than 85%)	5 (Level 5: the growth inhibition rate is greater than 85%)	5 (Level 5: the growth inhibition rate is greater than 85%)	5 (Level 5: the growth inhibition rate is greater than 85%)	5 (Level 5: the growth inhibition rate is greater than 85%)
CC(Oc1nc(F)c(Cl)c(N)c1Cl)C(=O)SCc1ccccc1F (centres unmarked) [Compound 2-309]	5 (Level 5: the growth inhibition rate is greater than 85%)	5 (Level 5: the growth inhibition rate is greater than 85%)	5 (Level 5: the growth inhibition rate is greater than 85%)	5 (Level 5: the growth inhibition rate is greater than 85%)	5 (Level 5: the growth inhibition rate is greater than 85%)
CC(Oc1nc(F)c(Cl)c(N)c1Cl)C(=O)OCc1cccc(F)c1 (centres unmarked) [Compound 2-310]	5 (Level 5: the growth inhibition rate is greater than 85%)	5 (Level 5: the growth inhibition rate is greater than 85%)	5 (Level 5: the growth inhibition rate is greater than 85%)	5 (Level 5: the growth inhibition rate is greater than 85%)	5 (Level 5: the growth inhibition rate is greater than 85%)
CC(Oc1nc(F)c(Cl)c(N)c1Cl)C(=O)SCc1cccc(F)c1 (centres unmarked) [Compound 2-311]	5 (Level 5: the growth inhibition rate is greater than 85%)	5 (Level 5: the growth inhibition rate is greater than 85%)	5 (Level 5: the growth inhibition rate is greater than 85%)	5 (Level 5: the growth inhibition rate is greater than 85%)	5 (Level 5: the growth inhibition rate is greater than 85%)
CC(Oc1nc(F)c(Cl)c(N)c1Cl)C(=O)OCc1ccc(F)cc1 (centres unmarked) [Compound 2-312]	5 (Level 5: the growth inhibition rate is greater than 85%)	5 (Level 5: the growth inhibition rate is greater than 85%)	5 (Level 5: the growth inhibition rate is greater than 85%)	5 (Level 5: the growth inhibition rate is greater than 85%)	5 (Level 5: the growth inhibition rate is greater than 85%)
CC(Oc1nc(F)c(Cl)c(N)c1Cl)C(=O)SCc1ccc(F)cc1 (centres unmarked) [Compound 2-313]	5 (Level 5: the growth inhibition rate is greater than 85%)	5 (Level 5: the growth inhibition rate is greater than 85%)	5 (Level 5: the growth inhibition rate is greater than 85%)	5 (Level 5: the growth inhibition rate is greater than 85%)	5 (Level 5: the growth inhibition rate is greater than 85%)
CC(Oc1nc(F)c(Cl)c(N)c1Cl)C(=O)OCc1ccccc1Cl (centres unmarked) [Compound 2-314]	5 (Level 5: the growth inhibition rate is greater than 85%)	5 (Level 5: the growth inhibition rate is greater than 85%)	5 (Level 5: the growth inhibition rate is greater than 85%)	5 (Level 5: the growth inhibition rate is greater than 85%)	5 (Level 5: the growth inhibition rate is greater than 85%)
CC(Oc1nc(F)c(Cl)c(N)c1Cl)C(=O)SCc1ccccc1Cl (centres unmarked) [Compound 2-315]	5 (Level 5: the growth inhibition rate is greater than 85%)	5 (Level 5: the growth inhibition rate is greater than 85%)	5 (Level 5: the growth inhibition rate is greater than 85%)	5 (Level 5: the growth inhibition rate is greater than 85%)	5 (Level 5: the growth inhibition rate is greater than 85%)
CC(Oc1nc(F)c(Cl)c(N)c1Cl)C(=O)OCc1cccc(Cl)c1 (centres unmarked) [Compound 2-316]	5 (Level 5: the growth inhibition rate is greater than 85%)	5 (Level 5: the growth inhibition rate is greater than 85%)	5 (Level 5: the growth inhibition rate is greater than 85%)	5 (Level 5: the growth inhibition rate is greater than 85%)	5 (Level 5: the growth inhibition rate is greater than 85%)
CC(Oc1nc(F)c(Cl)c(N)c1Cl)C(=O)SCc1cccc(Cl)c1 (centres unmarked) [Compound 2-317]	5 (Level 5: the growth inhibition rate is greater than 85%)	5 (Level 5: the growth inhibition rate is greater than 85%)	5 (Level 5: the growth inhibition rate is greater than 85%)	5 (Level 5: the growth inhibition rate is greater than 85%)	5 (Level 5: the growth inhibition rate is greater than 85%)
CC(Oc1nc(F)c(Cl)c(N)c1Cl)C(=O)OCc1ccc(Cl)cc1 (centres unmarked) [Compound 2-318]	5 (Level 5: the growth inhibition rate is greater than 85%)	5 (Level 5: the growth inhibition rate is greater than 85%)	5 (Level 5: the growth inhibition rate is greater than 85%)	5 (Level 5: the growth inhibition rate is greater than 85%)	5 (Level 5: the growth inhibition rate is greater than 85%)
CC(Oc1nc(F)c(Cl)c(N)c1Cl)C(=O)OCc1ccccc1Br (centres unmarked) [Compound 2-320]	5 (Level 5: the growth inhibition rate is greater than 85%)	5 (Level 5: the growth inhibition rate is greater than 85%)	5 (Level 5: the growth inhibition rate is greater than 85%)	5 (Level 5: the growth inhibition rate is greater than 85%)	5 (Level 5: the growth inhibition rate is greater than 85%)
CC(Oc1nc(F)c(Cl)c(N)c1Cl)C(=O)SCc1ccccc1Br (centres unmarked) [Compound 2-321]	5 (Level 5: the growth inhibition rate is greater than 85%)	5 (Level 5: the growth inhibition rate is greater than 85%)	5 (Level 5: the growth inhibition rate is greater than 85%)	5 (Level 5: the growth inhibition rate is greater than 85%)	5 (Level 5: the growth inhibition rate is greater than 85%)
